Reference: patent US9150632B2 (Indiana University Research and Technology Corporation, priority 2009, dated 2015)
Non-standard residues stand in square brackets, D forms with d. Residues, ends and D or L forms follow the SMILES beside them. Dab = NCC[C@H](N)C(=O)O; Aib = CC(C)(N)C(=O)O

Target: T1, glucagon receptor (Homo sapiens, UniProt P47871)
T1 construct: expressed in transfected cells; host or cells: HEK293
Test: Functional assay-cAMP synthesis, luciferase reporter in HEK293 cells, glucagon receptor
Type: cell-based
Parameters: % activity: concentration or dose not given beside the values

T1 sequence (P47871 26-477): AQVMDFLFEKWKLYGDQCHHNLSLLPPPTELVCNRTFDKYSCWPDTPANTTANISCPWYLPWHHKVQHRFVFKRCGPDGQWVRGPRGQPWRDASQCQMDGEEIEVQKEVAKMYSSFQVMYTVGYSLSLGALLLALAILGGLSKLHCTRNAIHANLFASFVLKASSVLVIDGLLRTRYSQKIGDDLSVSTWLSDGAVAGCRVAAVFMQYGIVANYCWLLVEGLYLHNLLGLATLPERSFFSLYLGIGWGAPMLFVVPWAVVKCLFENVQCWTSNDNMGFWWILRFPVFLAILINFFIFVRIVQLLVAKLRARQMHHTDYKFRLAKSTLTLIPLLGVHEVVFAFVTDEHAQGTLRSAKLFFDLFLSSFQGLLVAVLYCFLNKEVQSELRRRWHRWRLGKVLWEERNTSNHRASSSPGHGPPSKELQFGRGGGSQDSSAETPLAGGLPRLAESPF

SMILES	% activity (Table 27, glucagon receptor)	% activity (Table 26, glucagon receptor)
CC(=O)NCC[C@H](NC(=O)[C@H](CO)NC(=O)[C@@H](N)Cc1c[nH]cn1)C(=O)NCC(=O)N[C@H](C(=O)N[C@@H](Cc1ccccc1)C(=O)N[C@H](C(=O)N[C@@H](CO)C(=O)N[C@@H](CC(=O)O)C(=O)N[C@@H](Cc1ccc(O)cc1)C(=O)N[C@@H](CO)C(=O)N[C@@H](CCCCN)C(=O)N[C@@H](Cc1ccc(O)cc1)C(=O)N[C@@H](CC(C)C)C(=O)N[C@@H](CC(=O)O)C(=O)NC(C)(C)C(=O)N[C@@H](CCCNC(=N)N)C(=O)N[C@@H](CCCNC(=N)N)C(=O)N[C@@H](C)C(=O)N[C@@H](C)C(=O)N[C@@H](CC(=O)O)C(=O)N[C@@H](Cc1ccccc1)C(=O)N[C@H](C(=O)N[C@@H](C)C(=O)N[C@@H](Cc1c[nH]c2ccccc12)C(=O)N[C@@H](CC(C)C)C(=O)N[C@@H](CC(C)C)C(=O)N[C@@H](CC(=O)O)C(=O)N[C@H](C(=O)NCC(=O)N1CCC[C@H]1C(=O)N[C@@H](CO)C(=O)N[C@@H](CO)C(=O)NCC(=O)N[C@@H](C)C(=O)N1CCC[C@H]1C(=O)N1CCC[C@H]1C(=O)N1CCC[C@H]1C(=O)N[C@@H](CO)C(N)=O)[C@@H](C)O)C(C)C)[C@@H](C)O)[C@@H](C)O (H-HS[Dab](Ac)GTFTSDYSKYLD[Aib]RRAADFVAWLLDTGPSSGAPPPS-NH2; N-terminus assumed)	113%	–
CC(=O)NCC[C@H](NC(=O)[C@H](CO)NC(=O)[C@@H](N)Cc1c[nH]cn1)C(=O)NCC(=O)N[C@H](C(=O)N[C@@H](Cc1ccccc1)C(=O)N[C@H](C(=O)N[C@@H](CO)C(=O)N[C@@H](CC(=O)O)C(=O)N[C@@H](Cc1ccc(O)cc1)C(=O)N[C@@H](CO)C(=O)N[C@@H](CCCCN)C(=O)N[C@@H](Cc1ccc(O)cc1)C(=O)N[C@@H](CC(C)C)C(=O)N[C@@H](CC(=O)O)C(=O)NC(C)(C)C(=O)N[C@@H](CCCNC(=N)N)C(=O)N[C@@H](CCCNC(=N)N)C(=O)N[C@@H](C)C(=O)N[C@@H](CO)C(=O)N[C@@H](CC(=O)O)C(=O)N[C@@H](Cc1ccccc1)C(=O)N[C@H](C(=O)N[C@@H](CO)C(=O)N[C@@H](Cc1c[nH]c2ccccc12)C(=O)N[C@@H](CC(C)C)C(=O)N[C@@H](CC(C)C)C(=O)N[C@@H](CC(=O)O)C(=O)N[C@@H](CCC(=O)O)C(=O)O)C(C)C)[C@@H](C)O)[C@@H](C)O (H-HS[Dab](Ac)GTFTSDYSKYLD[Aib]RRASDFVSWLLDE-OH; N-terminus and C-terminus assumed)	54%	–
CC(=O)NCC[C@H](NC(=O)[C@H](CO)NC(=O)[C@@H](N)Cc1c[nH]cn1)C(=O)NCC(=O)N[C@H](C(=O)N[C@@H](Cc1ccccc1)C(=O)N[C@H](C(=O)N[C@@H](CO)C(=O)N[C@@H](CC(=O)O)C(=O)N[C@@H](Cc1ccc(O)cc1)C(=O)N[C@@H](CO)C(=O)N[C@@H](CCCCN)C(=O)N[C@@H](Cc1ccc(O)cc1)C(=O)N[C@@H](CC(C)C)C(=O)N[C@@H](CC(=O)O)C(=O)NC(C)(C)C(=O)N[C@@H](CCCNC(=N)N)C(=O)N[C@@H](CCCNC(=N)N)C(=O)N[C@@H](C)C(=O)N[C@H](C(=O)N[C@@H](CC(=O)O)C(=O)N[C@@H](Cc1ccccc1)C(=O)N[C@H](C(=O)N[C@H](C(=O)N[C@@H](Cc1c[nH]c2ccccc12)C(=O)N[C@@H](CC(C)C)C(=O)N[C@@H](CC(C)C)C(=O)N[C@@H](CC(=O)O)C(=O)N[C@@H](CCC(=O)O)C(=O)O)[C@@H](C)O)C(C)C)[C@@H](C)O)[C@@H](C)O)[C@@H](C)O (H-HS[Dab](Ac)GTFTSDYSKYLD[Aib]RRATDFVTWLLDE-OH; N-terminus and C-terminus assumed)	46%	–
CCCC[C@H](NC(=O)[C@H](CC(C)C)NC(=O)[C@H](Cc1c[nH]c2ccccc12)NC(=O)[C@H](C)NC(=O)[C@@H](NC(=O)[C@H](Cc1ccccc1)NC(=O)[C@H](CCC(=O)O)NC(=O)[C@H](C)NC(=O)[C@H](C)NC(=O)[C@H](CCCNC(=N)N)NC(=O)[C@H](CCCNC(=N)N)NC(=O)[C@@H](NC(=O)[C@H](CC(=O)O)NC(=O)[C@H](CC(C)C)NC(=O)[C@H](Cc1ccc(O)cc1)NC(=O)[C@H](CCCCN)NC(=O)[C@H](CO)NC(=O)[C@H](Cc1ccc(O)cc1)NC(=O)[C@H](CC(=O)O)NC(=O)[C@H](CO)NC(=O)[C@@H](NC(=O)[C@H](Cc1ccccc1)NC(=O)[C@@H](NC(=O)CNC(=O)[C@H](CSCNC(C)=O)NC(=O)[C@H](CO)NC(=O)[C@@H](N)Cc1c[nH]cn1)[C@@H](C)O)[C@@H](C)O)[C@@H](C)O)C(C)C)C(=O)N[C@@H](CC(=O)O)C(=O)N[C@@H](CCC(=O)O)C(=O)O [SEQ ID NO: 594]	–	33%
CCCC[C@H](NC(=O)[C@H](CC(C)C)NC(=O)[C@H](Cc1c[nH]c2ccccc12)NC(=O)[C@H](C)NC(=O)[C@@H](NC(=O)[C@H](Cc1ccccc1)NC(=O)[C@H](CCC(=O)O)NC(=O)[C@H](C)NC(=O)[C@H](C)NC(=O)[C@H](CCCNC(=N)N)NC(=O)[C@H](CCCNC(=N)N)NC(=O)[C@@H](NC(=O)[C@H](CC(=O)O)NC(=O)[C@H](CC(C)C)NC(=O)[C@H](Cc1ccc(O)cc1)NC(=O)[C@H](CCCCN)NC(=O)[C@H](CO)NC(=O)[C@H](Cc1ccc(O)cc1)NC(=O)[C@H](CC(=O)O)NC(=O)[C@H](CO)NC(=O)[C@@H](NC(=O)[C@H](Cc1ccccc1)NC(=O)[C@@H](NC(=O)CNC(=O)[C@H](CC[S+](C)[O-])NC(=O)[C@H](CO)NC(=O)[C@@H](N)Cc1c[nH]cn1)[C@@H](C)O)[C@@H](C)O)[C@@H](C)O)C(C)C)C(=O)N[C@@H](CC(=O)O)C(=O)N[C@@H](CCC(=O)O)C(=O)O (stereo partly shown) [SEQ ID NO: 598]	–	7%
CSCC[C@H](NC(=O)[C@H](CC(C)C)NC(=O)[C@H](Cc1c[nH]c2ccccc12)NC(=O)[C@H](C)NC(=O)[C@@H](NC(=O)[C@H](Cc1ccccc1)NC(=O)[C@H](CC(=O)O)NC(=O)[C@H](C)NC(=O)[C@H](C)NC(=O)[C@H](CCCNC(=N)N)NC(=O)[C@H](CCCNC(=N)N)NC(=O)C(C)(C)NC(=O)[C@H](CC(=O)O)NC(=O)[C@H](CC(C)C)NC(=O)[C@H](Cc1ccc(O)cc1)NC(=O)[C@H](CCCCN)NC(=O)[C@H](CO)NC(=O)[C@H](Cc1ccc(O)cc1)NC(=O)[C@H](CC(=O)O)NC(=O)[C@H](CO)NC(=O)[C@@H](NC(=O)[C@H](Cc1ccccc1)NC(=O)[C@@H](NC(=O)CNC(=O)[C@H](CCC(N)=O)NC(=O)[C@H](CO)NC(=O)[C@@H](N)Cc1c[nH]cn1)[C@@H](C)O)[C@@H](C)O)C(C)C)C(=O)N[C@@H](CC(=O)O)C(=O)N[C@@H](CCC(=O)O)C(=O)O [SEQ ID NO: 600]	–	15%

More lines, now with the values ahead:

% activity (Table 27, glucagon receptor)	% activity (Table 26, glucagon receptor)	SMILES
–	25%	CCCC[C@H](NC(=O)[C@H](CC(C)C)NC(=O)[C@H](Cc1c[nH]c2ccccc12)NC(=O)[C@H](C)NC(=O)[C@@H](NC(=O)[C@H](Cc1ccccc1)NC(=O)[C@H](CCC(=O)O)NC(=O)[C@H](C)NC(=O)[C@H](C)NC(=O)[C@H](CCCNC(=N)N)NC(=O)[C@H](CCCNC(=N)N)NC(=O)[C@@H](NC(=O)[C@H](CC(=O)O)NC(=O)[C@H](CC(C)C)NC(=O)[C@H](Cc1ccc(O)cc1)NC(=O)[C@H](CCCCN)NC(=O)[C@H](CO)NC(=O)[C@H](Cc1ccc(O)cc1)NC(=O)[C@H](CC(=O)O)NC(=O)[C@H](CO)NC(=O)[C@@H](NC(=O)[C@H](Cc1ccccc1)NC(=O)[C@@H](NC(=O)CNC(=O)[C@H](CCC(N)=O)NC(=O)[C@H](CO)NC(=O)[C@@H](N)Cc1c[nH]cn1)[C@@H](C)O)[C@@H](C)O)[C@@H](C)O)C(C)C)C(=O)N[C@@H](CC(=O)O)C(=O)N[C@@H](CCC(=O)O)C(=O)O [SEQ ID NO: 593]
–	19%	CCCC[C@H](NC(=O)[C@H](CC(C)C)NC(=O)[C@H](Cc1c[nH]c2ccccc12)NC(=O)[C@H](C)NC(=O)[C@@H](NC(=O)[C@H](Cc1ccccc1)NC(=O)[C@H](CCC(=O)O)NC(=O)[C@H](C)NC(=O)[C@H](C)NC(=O)[C@H](CCCNC(=N)N)NC(=O)[C@H](CCCNC(=N)N)NC(=O)[C@@H](NC(=O)[C@H](CC(=O)O)NC(=O)[C@H](CC(C)C)NC(=O)[C@H](Cc1ccc(O)cc1)NC(=O)[C@H](CCCCN)NC(=O)[C@H](CO)NC(=O)[C@H](Cc1ccc(O)cc1)NC(=O)[C@H](CC(=O)O)NC(=O)[C@H](CO)NC(=O)[C@@H](NC(=O)[C@H](Cc1ccccc1)NC(=O)[C@@H](NC(=O)CNC(=O)[C@H](CCNC(C)=O)NC(=O)[C@H](CO)NC(=O)[C@@H](N)Cc1c[nH]cn1)[C@@H](C)O)[C@@H](C)O)[C@@H](C)O)C(C)C)C(=O)N[C@@H](CC(=O)O)C(=O)N[C@@H](CCC(=O)O)C(=O)O [SEQ ID NO: 595]
–	13%	CCCC[C@H](NC(=O)[C@H](CC(C)C)NC(=O)[C@H](Cc1c[nH]c2ccccc12)NC(=O)[C@H](C)NC(=O)[C@@H](NC(=O)[C@H](Cc1ccccc1)NC(=O)[C@H](CCC(=O)O)NC(=O)[C@H](C)NC(=O)[C@H](C)NC(=O)[C@H](CCCNC(=N)N)NC(=O)[C@H](CCCNC(=N)N)NC(=O)[C@@H](NC(=O)[C@H](CC(=O)O)NC(=O)[C@H](CC(C)C)NC(=O)[C@H](Cc1ccc(O)cc1)NC(=O)[C@H](CCCCN)NC(=O)[C@H](CO)NC(=O)[C@H](Cc1ccc(O)cc1)NC(=O)[C@H](CC(=O)O)NC(=O)[C@H](CO)NC(=O)[C@@H](NC(=O)[C@H](Cc1ccccc1)NC(=O)[C@@H](NC(=O)CNC(=O)[C@H](CNC(N)=O)NC(=O)[C@H](CO)NC(=O)[C@@H](N)Cc1c[nH]cn1)[C@@H](C)O)[C@@H](C)O)[C@@H](C)O)C(C)C)C(=O)N[C@@H](CC(=O)O)C(=O)N[C@@H](CCC(=O)O)C(=O)O [SEQ ID NO: 596]
–	7%	CCCC[C@H](NC(=O)[C@H](CC(C)C)NC(=O)[C@H](Cc1c[nH]c2ccccc12)NC(=O)[C@H](C)NC(=O)[C@@H](NC(=O)[C@H](Cc1ccccc1)NC(=O)[C@H](CCC(=O)O)NC(=O)[C@H](C)NC(=O)[C@H](C)NC(=O)[C@H](CCCNC(=N)N)NC(=O)[C@H](CCCNC(=N)N)NC(=O)[C@@H](NC(=O)[C@H](CC(=O)O)NC(=O)[C@H](CC(C)C)NC(=O)[C@H](Cc1ccc(O)cc1)NC(=O)[C@H](CCCCN)NC(=O)[C@H](CO)NC(=O)[C@H](Cc1ccc(O)cc1)NC(=O)[C@H](CC(=O)O)NC(=O)[C@H](CO)NC(=O)[C@@H](NC(=O)[C@H](Cc1ccccc1)NC(=O)[C@@H](NC(=O)CNC(=O)[C@H](CCCNC(C)=O)NC(=O)[C@H](CO)NC(=O)[C@@H](N)Cc1c[nH]cn1)[C@@H](C)O)[C@@H](C)O)[C@@H](C)O)C(C)C)C(=O)N[C@@H](CC(=O)O)C(=O)N[C@@H](CCC(=O)O)C(=O)O [SEQ ID NO: 599]
